Measurements published in US8349577B2, “Method for evaluating blood-neural barrier permeability” (Research Foundation For Mental Hygiene, Inc., priority 2010, dated 2013).
Entries after “also recorded” stand apart in the source; their conditions may differ.

Assays:
[1] = test system: PLA2 activity in lumbar CSF; experiment: Continuous fluorescence PLA2 activity assay with lumbar CSF (Bis-BODIPY FL C11-PC-labeled DOPC liposomes); format: biochemical, human; details: for Inhibition of PLA2 activity from lumbar CSF: 5 μL lumbar CSF incubated with inhibitor, FIGS. 3A-3C
Protocol: (§1) PLA2 activity assays were carried out in triplicates using a continuous fluorescent measurement. In a 96-well microplate, 5 μL lumbar CSF (or 10 μM recombinant sPLA2) was diluted in 90 μL PLA2 assay buffer (10 mM Tris-HCl, pH 7.4; 100 mM KCl; 5 mM CaCl2; 1 mM DTT). Then, 5 μL Bis-BODIPY® FL C11-PC-labeled 100% DOPC liposomes were added to each well and the microplate was immediately placed in a temperature controlled (30° C.) cytofluor multi-well plate reader series 4000 (PerSeptive Biosystems®, Foster City, Calif.). The fluorescence intensity was recorded over 90 min (91 cycles of 60 sec each) at 485 nm excitation and 530 nm emission. Finally, PLA2 activity was evaluated using linear curve fitting with Graph Prism 3.0 (GraphPad Software™, San Diego, Calif.).
(§2) Although there are currently twenty-two different PLA2 enzymes classified in five families (sPLA2, cPLA2, iPLA2, PAF-AH and lysosomal PLA2), there is currently no known tool for the specific characterization of each of these isozymes. Thus, to characterize the activity of each new PLA2 the current approach is to determine to which family the PLA2 enzyme belongs. For this purpose, a battery of inhibitors more or less specific against each PLA2 family is generally used to discriminate one family from another.
(§3) Stock solutions and serial dilutions of PLA2 inhibitors (AACOCF3, BEL and Thioetheramide-PC) were prepared in PLA2 assay buffer supplemented by 4.25 mM Triton X-100. Each assay was carried out in the absence or presence of 5 μL of the appropriate inhibitor.

recombinant sPLA2 = experiment: Continuous fluorescence PLA2 activity assay with recombinant sPLA2 (Bis-BODIPY FL C11-PC-labeled DOPC liposomes); format: biochemical; details: for Inhibition of PLA2 activity from recombinant sPLA2: recombinant sPLA2 incubated with inhibitor, FIGS. 3A-3C
Protocol: as §1, §2, §3

[2] = various concentrations of calcium, FIG. 3D

Molecule | Inhibition of PLA2 activity from lumbar CSF [1] | Inhibition of PLA2 activity from recombinant sPLA2 (recombinant sPLA2) | Effect of increasing calcium concentration on PLA2 activity in lumbar CSF [1, 2] | Effect of increasing calcium concentration on recombinant sPLA2 activity (recombinant sPLA2; [2])
CCCCC/C=C\C/C=C\C/C=C\C/C=C\CCCC(=O)C(F)(F)F [AACOCF3] | not and failed to do so | failed to do so | – | –
O=C1O/C(=C/Br)CCC1c1cccc2ccccc12 (centres unmarked) [BEL] | not and failed to do so | failed to do so | – | –
CCCCCCCCCCCCCCCCSC[C@H](COP(=O)(O)OCC[N+](C)(C)C)NC(=O)CCCCCCCCCCCCCCC [thioetheramide-PC] | strongly inhibited; also recorded: dose-dependently inhibited | dose-dependently inhibited | – | –
calcium | – | – | increase of PLA2 activity | increase of PLA2 activity
